Measurements reported in patent US9326973B2, “Hepatitis C virus inhibitors” (priority 2012, dated 2016).

Tested on: HCV replicon, genotype-1a variant with glutamine 30 changed to glutamate in the NS5A protein
Assay: microbe, parasite or virus in culture
Assay type: cell-based, HCV genotype 1a
Details: HCV replicon genotype 1a Q30E (Q→E) variant; test compound titrated with an NS5A-targeting compound (BMS-790052 fixed at 200 nM); ranking of synergist activity
Method in brief: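 Synergy was assessed by combining several fixed amounts of an NS5A-targeting compound with a titration of the second compound of interest.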

| SMILES | Fold-Synergistic 1a (Q30E) [fold] |
| --- | --- |
| Cc1ncccc1C(=O)N1CCC[C@H]1c1ncc(-c2ccc(-c3ccc(-c4cnc([C@@H]5CCCN5C(=O)c5cccnc5C)[nH]4)cc3)cc2)[nH]1 [Compound S-188] | <10 |
| Cc1ccoc1C(=O)N1CCC[C@H]1c1ncc(-c2ccc(-c3ccc(-c4cnc([C@@H]5CCCN5C(=O)c5occc5C)[nH]4)cc3)cc2)[nH]1 [Compound S-189] | >10 |
| CCCC(C)(C)C(=O)N1CCC[C@H]1c1ncc(-c2ccc(-c3ccc(-c4cnc([C@@H]5CCCN5C(=O)C(C)(C)CCC)[nH]4)cc3)cc2)[nH]1 [Compound S-190] | <10 |
| Cc1cccc(C(=O)N2CCC[C@H]2c2ncc(-c3ccc(-c4ccc(-c5cnc([C@@H]6CCCN6C(=O)c6cccc(C)n6)[nH]5)cc4)cc3)[nH]2)n1 [Compound S-191] | <10 |
| COCCC(=O)N1CCC[C@H]1c1ncc(-c2ccc(-c3ccc(-c4cnc([C@@H]5CCCN5C(=O)CCOC)[nH]4)cc3)cc2)[nH]1 [Compound S-192] | <10 |
| O=C(CC(F)(F)F)N1CCC[C@H]1c1ncc(-c2ccc(-c3ccc(-c4cnc([C@@H]5CCCN5C(=O)CC(F)(F)F)[nH]4)cc3)cc2)[nH]1 [Compound S-193] | <10 |
| N#CC1(C(=O)N2CCC[C@H]2c2ncc(-c3ccc(-c4ccc(-c5cnc([C@@H]6CCCN6C(=O)C6(C#N)CC6)[nH]5)cc4)cc3)[nH]2)CC1 [Compound S-194] | <10 |
| O=C(c1cncnc1)N1CCC[C@H]1c1ncc(-c2ccc(-c3ccc(-c4cnc([C@@H]5CCCN5C(=O)c5cncnc5)[nH]4)cc3)cc2)[nH]1 [Compound S-195] | <10 |
| O=C(CCN1CCOCC1)N1CCC[C@H]1c1ncc(-c2ccc(-c3ccc(-c4cnc([C@@H]5CCCN5C(=O)CCN5CCOCC5)[nH]4)cc3)cc2)[nH]1 [Compound S-196] | <10 |
| CC(C)(C)CC(=O)N1CCC[C@H]1c1ncc(-c2ccc(-c3ccc(-c4cnc([C@@H]5CCCN5C(=O)CC(C)(C)C)[nH]4)cc3)cc2)[nH]1 [Compound S-197] | <10 |
| COc1ccc2c(C(=O)N3CCC[C@H]3c3ncc(-c4ccc(-c5ccc(-c6cnc([C@@H]7CCCN7C(=O)c7nccc8cc(OC)ccc78)[nH]6)cc5)cc4)[nH]3)nccc2c1 [Compound S-198] | >100 |
| COc1cnc(C(=O)N2CCC[C@H]2c2ncc(-c3ccc(-c4ccc(-c5cnc([C@@H]6CCCN6C(=O)c6ncc(OC)c7ccccc67)[nH]5)cc4)cc3)[nH]2)c2ccccc12 [Compound S-199] | >100 |
| O=C(c1ncc(Cl)c2ccccc12)N1CCC[C@H]1c1ncc(-c2ccc(-c3ccc(-c4cnc([C@@H]5CCCN5C(=O)c5ncc(Cl)c6ccccc56)[nH]4)cc3)cc2)[nH]1 [Compound S-200] | >100 |
| COc1cccc2c(C(=O)N3CCC[C@H]3c3ncc(-c4ccc(-c5ccc(-c6cnc([C@@H]7CCCN7C(=O)c7nccc8c(OC)cccc78)[nH]6)cc5)cc4)[nH]3)nccc12 [Compound S-201] | >100 |
| O=C(c1nccc2ccccc12)N1CCC[C@H]1c1ncc(-c2ccc(-c3ccc(-c4cnc([C@@H]5CCCN5C(=O)c5nccc6ccccc56)[nH]4)cc3)cc2)[nH]1 [Compound S-202] | >100 |
| O=C(c1cccc2cnccc12)N1CCC[C@H]1c1ncc(-c2ccc(-c3ccc(-c4cnc([C@@H]5CCCN5C(=O)c5cccc6cnccc56)[nH]4)cc3)cc2)[nH]1 [Compound S-203] | <10 |
| COc1ccc2c(C(=O)N3CCC[C@H]3c3ncc(-c4ccc(-c5ccc(-c6cnc([C@@H]7CCCN7C(=O)c7nc(Cl)cc8cc(OC)ccc78)[nH]6)cc5)cc4)[nH]3)nc(Cl)cc2c1 [Compound S-204] | >100 |
| O=C(c1nccc2c(Cl)cccc12)N1CCC[C@H]1c1ncc(-c2ccc(-c3ccc(-c4cnc([C@@H]5CCCN5C(=O)c5nccc6c(Cl)cccc56)[nH]4)cc3)cc2)[nH]1 [Compound S-206] | >100 |
| CC(C)(C)[C@H](NC(=O)C1CC(=O)c2ccccc2C1)c1nc(-c2ccc(-c3ccc(-c4c[nH]c([C@@H](NC(=O)C5CC(=O)c6ccccc6C5)C(C)(C)C)n4)cc3)cc2)c[nH]1 (stereo partly drawn) [Compound S-256] | >100 |
| CC(C)(C)[C@H](NC(=O)C1CC(=O)c2ccccc21)c1nc(-c2ccc(-c3ccc(-c4c[nH]c([C@@H](NC(=O)C5CC(=O)c6ccccc65)C(C)(C)C)n4)cc3)cc2)c[nH]1 (stereo partly drawn) [Compound S-257] | >10 |

| SMILES | Fold-Synergistic 1a (Q30E) [fold] |
| --- | --- |
| CCCC[C@@H](CC(=O)OC(C)(C)C)C(=O)N[C@H](c1nc(-c2ccc(-c3ccc(-c4c[nH]c([C@@H](NC(=O)[C@@H](CCCC)CC(=O)OC(C)(C)C)C(C)(C)C)n4)cc3)cc2)c[nH]1)C(C)(C)C [Compound S-260] | >100 |
| CC(C)(C)[C@H](NC(=O)C12CCC(CC1)C2)c1nc(-c2ccc(-c3ccc(-c4c[nH]c([C@@H](NC(=O)C56CCC(CC5)C6)C(C)(C)C)n4)cc3)cc2)c[nH]1 [Compound S-261] | >100 |
| COc1ccccc1C1OC(=O)C[C@@H]1C(=O)N[C@H](c1nc(-c2ccc(-c3ccc(-c4c[nH]c([C@@H](NC(=O)[C@H]5CC(=O)OC5c5ccccc5OC)C(C)(C)C)n4)cc3)cc2)c[nH]1)C(C)(C)C (stereo partly drawn) [Compound S-263] | >10 |
| CC(C)(C)OC(=O)N1CCC(C(=O)N[C@H](c2nc(-c3ccc(-c4ccc(-c5c[nH]c([C@@H](NC(=O)C6CCN(C(=O)OC(C)(C)C)CC6)C(C)(C)C)n5)cc4)cc3)c[nH]2)C(C)(C)C)CC1 [Compound S-264] | >100 |
| CC(C)(C)[C@H](NC(=O)C1CC(=O)N(c2ccccc2O)C1)c1nc(-c2ccc(-c3ccc(-c4c[nH]c([C@@H](NC(=O)C5CC(=O)N(c6ccccc6O)C5)C(C)(C)C)n4)cc3)cc2)c[nH]1 (stereo partly drawn) [Compound S-265] | >100 |
| CC(C)(C)OC(=O)N[C@@H]1CCCC(C(=O)N[C@H](c2nc(-c3ccc(-c4ccc(-c5c[nH]c([C@@H](NC(=O)C6CCC[C@@H](NC(=O)OC(C)(C)C)C6)C(C)(C)C)n5)cc4)cc3)c[nH]2)C(C)(C)C)C1 (stereo partly drawn) [Compound S-266] | >100 |
| COc1ccc(CNC(C)(C)C(=O)N[C@H](c2nc(-c3ccc(-c4ccc(-c5c[nH]c([C@@H](NC(=O)C(C)(C)NCc6ccc(OC)cc6)C(C)(C)C)n5)cc4)cc3)c[nH]2)C(C)(C)C)cc1 [Compound S-267] | >100 |
| CN1CCC(C(=O)N[C@H](c2nc(-c3ccc(-c4ccc(-c5c[nH]c([C@@H](NC(=O)C6CCN(C)CC6)C(C)(C)C)n5)cc4)cc3)c[nH]2)C(C)(C)C)CC1 [Compound S-268] | >10 |
| CC(C)(C)[C@H](NC(=O)C1CCCCC1c1ccccc1)c1nc(-c2ccc(-c3ccc(-c4c[nH]c([C@@H](NC(=O)C5CCCCC5c5ccccc5)C(C)(C)C)n4)cc3)cc2)c[nH]1 (stereo partly drawn) [Compound S-269] | >100 |
| CC(C)(C)OC(=O)NC1CCC(C(=O)N[C@H](c2nc(-c3ccc(-c4ccc(-c5c[nH]c([C@@H](NC(=O)C6CCC(NC(=O)OC(C)(C)C)CC6)C(C)(C)C)n5)cc4)cc3)c[nH]2)C(C)(C)C)CC1 (stereo partly drawn) [Compound S-270] | >100 |
| CC(C)(C)OC(=O)C[C@H](C(=O)N[C@H](c1nc(-c2ccc(-c3ccc(-c4c[nH]c([C@@H](NC(=O)[C@@H](CC(=O)OC(C)(C)C)C5CCCC5)C(C)(C)C)n4)cc3)cc2)c[nH]1)C(C)(C)C)C1CCCC1 [Compound S-272] | >100 |
| COC(=O)C1(C(=O)N[C@H](c2nc(-c3ccc(-c4ccc(-c5c[nH]c([C@@H](NC(=O)C6(C(=O)OC)CCCCC6)C(C)(C)C)n5)cc4)cc3)c[nH]2)C(C)(C)C)CCCCC1 [Compound S-273] | >100 |
| CC(=O)OC1C2CCCC1(C(=O)N[C@H](c1nc(-c3ccc(-c4ccc(-c5c[nH]c([C@@H](NC(=O)C67CCCC(CCC6)C7OC(C)=O)C(C)(C)C)n5)cc4)cc3)c[nH]1)C(C)(C)C)CCC2 (stereo partly drawn) [Compound S-274] | >100 |
| COC(=O)N[C@@H]1CCCCC1C(=O)N[C@H](c1nc(-c2ccc(-c3ccc(-c4c[nH]c([C@@H](NC(=O)C5CCCC[C@H]5NC(=O)OC)C(C)(C)C)n4)cc3)cc2)c[nH]1)C(C)(C)C (stereo partly drawn) [Compound S-275] | >100 |
| CC(C)(C)[C@H](NC(=O)C(C)(C)n1ncnn1)c1nc(-c2ccc(-c3ccc(-c4c[nH]c([C@@H](NC(=O)C(C)(C)n5ncnn5)C(C)(C)C)n4)cc3)cc2)c[nH]1 [Compound S-276] | >100 |
| CC(C)(C)[C@H](NC(=O)C(C)(C)n1cnnn1)c1nc(-c2ccc(-c3ccc(-c4c[nH]c([C@@H](NC(=O)C(C)(C)n5cnnn5)C(C)(C)C)n4)cc3)cc2)c[nH]1 [Compound S-277] | >100 |
| Cc1c2c(nn1C)CCC(C(=O)N[C@H](c1nc(-c3ccc(-c4ccc(-c5c[nH]c([C@@H](NC(=O)C6CCc7nn(C)c(C)c7C6)C(C)(C)C)n5)cc4)cc3)c[nH]1)C(C)(C)C)C2 (stereo partly drawn) [Compound S-278] | >100 |
| CC1(C)OC(=O)CC1C(=O)N[C@H](c1nc(-c2ccc(-c3ccc(-c4c[nH]c([C@@H](NC(=O)C5CC(=O)OC5(C)C)C(C)(C)C)n4)cc3)cc2)c[nH]1)C(C)(C)C (stereo partly drawn) [Compound S-279] | >10 |
| CC1(C(=O)N[C@H](c2nc(-c3ccc(-c4ccc(-c5c[nH]c([C@@H](NC(=O)C6(C)COC(c7ccccc7)OC6)C(C)(C)C)n5)cc4)cc3)c[nH]2)C(C)(C)C)COC(c2ccccc2)OC1 (stereo partly drawn) [Compound S-280] | >100 |
